This note sets out measurements from US7230010B2, “1,2,4-triazole derivative, method for preparing the same, and pharmaceutical composition containing the same” (CJ Corp., priority 2002, dated 2007).

Assay [1] addresses T1, COX-1 (Homo sapiens, UniProt P23219).
T1 construct: host or cells: U-937 human lymphoma cells
As to the kind of experiment: Assay for the COX-1 inhibitory activity using U-937. The format is cell-based. The note with it: 1 μM test compound; PGE2 inhibition in U-937 human lymphoma cells vs DMSO control; read-out: Cyclooxygenase (COX) Inhibition (%) COX-1 (1 μM). Here is the method: The collected cells were diluted with HBSS (x1, Hank's balanced salt solution) to a concentration of 1×10^6 cells/ml. 1 ml of the dilute cell solution was placed into each well of 12-well plates. 5 μl of 1 μM solution of a test compound in DMSO and 5 μl of DMSO as a control were added to the wells. The wells were incubated in CO2 incubator at 37° C. for 15 minutes. Separately, 10 mM stock solution of arachidonic acid in ethanol was diluted ten times in ethanol to prepare 1 mM solution of arachidonic acid. Arachidonic acid acts as a substrate. 10 μl of the 1 mM solution of arachidonic acid was added to each well and incubated at CO2 incubator at 37° C. for 30 minutes. The cell solution of each well was placed in a centrifuge test tube and centrifuged at 10,000 rpm at 4° C. for 5 minutes. The concentration of PGE2 in the collected cells and the supernatant was quantified by means of a monoclonal kit (Cayman Chemicals). The percentages of PGE2 inhibition in a group of the test compound-treated cells in relation to a group of the DMSO-treated cells were calculated. Based on the calculated values, the COX-1 inhibitory activities were evaluated.
(§1) % Inhibition=(concentration of PGE2 in test compound-untreated sample−concentration of PGE2 in test compound-treated sample)/(concentration of PGE2 in test compound-untreated sample)×100

The target of assay [2] is T2, COX-2 (Mus musculus, UniProt Q05769).
T2 construct: host or cells: RAW 264.7 cells, aspirin-pretreated, induced with interferon γ and LPS
T2 sequence (Q05769 18-604): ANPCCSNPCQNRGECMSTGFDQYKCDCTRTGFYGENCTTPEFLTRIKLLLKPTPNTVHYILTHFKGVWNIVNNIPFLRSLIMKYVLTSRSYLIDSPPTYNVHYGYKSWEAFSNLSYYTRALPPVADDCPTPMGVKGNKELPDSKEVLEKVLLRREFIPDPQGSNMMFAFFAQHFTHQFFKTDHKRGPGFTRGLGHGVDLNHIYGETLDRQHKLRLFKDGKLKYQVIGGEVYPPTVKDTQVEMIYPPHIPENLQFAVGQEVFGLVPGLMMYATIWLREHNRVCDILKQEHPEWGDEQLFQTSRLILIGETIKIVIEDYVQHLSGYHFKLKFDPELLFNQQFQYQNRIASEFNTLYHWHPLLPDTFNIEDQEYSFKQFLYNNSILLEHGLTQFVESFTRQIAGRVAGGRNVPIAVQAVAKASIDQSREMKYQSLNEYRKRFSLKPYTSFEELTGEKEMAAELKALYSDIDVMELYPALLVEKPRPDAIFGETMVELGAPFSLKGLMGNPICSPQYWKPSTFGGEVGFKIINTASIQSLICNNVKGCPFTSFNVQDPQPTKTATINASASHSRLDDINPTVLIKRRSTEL
As to the kind of experiment: Assay for the COX-2 inhibitory activity using RAW 264.7 cell line. The format is cell-based. The note with it: RAW264.7; 10 nM test compound; PGE2 in RAW 264.7 cells treated with interferon γ and LPS, 18 hours; read-out: Cyclooxygenase (COX) Inhibition (%) COX-2 (10 nM). Here is the method:
Each well was treated with 250 μM of aspirin and incubated at 37° C. for 2 hours. After the culture media were replaced with new culture media, the new culture media were treated with a test compound (10 nM) and incubated for 30 minutes. Then, each well was treated with interferon γ (100 units/ml) and lipopolysaccharide (LPS, 100 ng/ml) and incubated for 18 hours. The culture media were transferred to other test tubes. The concentration of PGE2 was quantified by means of the EIA kit (Cayman Chemicals).
as §1

T1 sequence (P23219 24-599): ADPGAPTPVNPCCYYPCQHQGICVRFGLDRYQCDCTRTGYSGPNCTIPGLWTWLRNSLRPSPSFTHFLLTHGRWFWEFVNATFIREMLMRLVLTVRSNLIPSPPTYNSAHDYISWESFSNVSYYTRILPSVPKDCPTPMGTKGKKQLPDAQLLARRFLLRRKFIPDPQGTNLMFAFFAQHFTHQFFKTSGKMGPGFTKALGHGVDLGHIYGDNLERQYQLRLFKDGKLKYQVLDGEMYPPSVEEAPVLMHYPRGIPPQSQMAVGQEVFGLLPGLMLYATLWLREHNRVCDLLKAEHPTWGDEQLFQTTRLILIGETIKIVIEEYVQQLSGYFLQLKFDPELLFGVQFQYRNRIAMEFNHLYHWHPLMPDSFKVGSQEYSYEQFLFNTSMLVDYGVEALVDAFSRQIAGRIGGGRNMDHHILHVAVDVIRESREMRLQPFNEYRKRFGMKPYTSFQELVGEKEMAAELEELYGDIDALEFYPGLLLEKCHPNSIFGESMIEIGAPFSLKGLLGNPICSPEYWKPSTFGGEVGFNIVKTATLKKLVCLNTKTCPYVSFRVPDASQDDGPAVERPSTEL

By inhibition is commonly meant the percentage by which the read-out fell short of the control. Consider `CS(=O)(=O)c1ccc(-n2nc(C(F)(F)F)nc2-c2ccc3ccccc3c2)cc1` [Example 10, 1-(4-methylsulfonylphenyl)-5-(naphthalene-2-yl)-3-trifluoromethyl-1H-1,2,4-triazole], for which, in assay [1], the inhibition at 1 µM was 26.2%. In addition, in assay [2], the inhibition at 0.01 µM was found to be 12.3%.
On the same counts, the results for `CS(=O)(=O)c1ccc(-n2nc(C(F)(F)F)nc2-c2cc3ccccc3o2)cc1` [Example 11, 5-(benzofuran-2-yl)-1-(4-methylsulfonylphenyl)-3-trifluoromethyl-1H-1,2,4-triazole] are 24.3% and 10.6%.
On the same counts, the results for `CS(=O)(=O)c1ccc(-n2nc(C(F)(F)F)nc2-c2cc3ccccc3[nH]2)cc1` [Example 12, 2-[2-(4-methylsulfonylphenyl)-5-trifluoromethyl-2H-1,2,4-triazole-3-yl]-1H-indole] are 26.3% and 5.67%.
For `Cn1c(-c2nc(C(F)(F)F)nn2-c2ccc(S(C)(=O)=O)cc2)cc2ccccc21` [Example 13, 1-methyl-2-[2-(4-methylsulfonylphenyl)-5-trifluoromethyl-2H-1,2,4-triazole-3-yl]-1H-indole], in that order: 9.8% and 25.7%.
For the molecule `Cn1cc(-c2nc(C(F)(F)F)nn2-c2ccc(S(C)(=O)=O)cc2)c2ccccc21` [Example 14, 1-methyl-3-[2-(4-methylsulfonylphenyl)-5-trifluoromethyl-2H-1,2,4-triazole-3-yl]-1H-indole], in assay [1], the inhibition at 1 µM was 21.3%. The inhibition at 0.01 µM in assay [2] was 6.02%.
On the same counts, the results for `CS(=O)(=O)c1ccc(-n2nc(C(F)(F)F)nc2-c2ccc3ccccc3n2)cc1` [Example 15, 2-[2-(4-methylsulfonylphenyl)-5-trifluoromethyl-2H-1,2,4-triazole-3-yl]quinoline] are 22.3% and 5.42%.
For `NS(=O)(=O)c1ccc(-n2nc(C(F)(F)F)nc2-c2ccc3ccccc3c2)cc1` [Example 16, 4-[5-(naphthalene-2-yl)-3-trifluoromethyl-1,2,4-triazole-1-yl]benzenesulfonamide], in that order: 32.9% and 16.3%.
On the same counts, the results for `CS(=O)(=O)c1ccc(-n2nc(C(F)(F)F)nc2-c2ccc3ccccc3c2)nc1` [Example 17, 5-methanesulfonyl-2-[5-(naphthalene-2-yl)-3-trifluoromethyl-1,2,4-triazole-1-yl]pyridine] are 10.6% and 23.3%.
